Measurements from US20050182242A1, “Global analysis of protein activities using proteome chips” (priority 2001, published 2005).

Experiments:
six different liposomes = assay: Reverse membrane assay: proteins spotted on nitrocellulose probed with six liposomes; format: binding
Method: B. A reverse assay was carried out to test for protein-lipid interactions. The proteins were prepared and spotted onto nitrocellulose filters in a dilution series and probed with the six different liposomes. As a control, the six liposomes were also added to the BSA-blocked membrane. After extensive washing, the bound liposomes were detected using an HRP-conjugated streptavidin and an ECL kit.
C. Linear correlation between the binding signals and the amounts of Rim15p in a membrane assay. When liposome-binding signals of Rim15p from the membrane assay (FIG. 4B) were plotted against the concentration gradient of the spotted Rim15p, the binding signals of PI(4)P, PI(3,4)P2, PI(3)P, and PI(4,5)P2 correlated linearly with the amounts of Rim15p.
Therefore, six proteins, i.e., Rim15p, Eno2p, Hxk1p, Sps1p, Yg1059wp, and Gcn2p, were further tested for phosphoinositol binding using two types of standard assays (Williamson, 2000, Nat. Struct Biol. 7(10):834-7). For Rim15p, Eno2p, and Hxk1p, PI(4,5)P2 liposomes were first adhered to a nitrocellulose membrane, which was then blocked by BSA; different amounts of the GST fusion proteins and a GST control were used to probe the membrane, and bound proteins were detected using anti-GST antibodies. […] We also carried out the reverse assay for four GST fusion proteins, Rim15p, Sps1p, Yg1059wp, and Gcn2p (Guerra et al., 2000, Biosci. Rep. 20: 41). Different amounts of these purified proteins were spotted onto nitrocellulose filters and probed with the six different liposomes (FIG. 5B). The bound liposomes were detected using a horseradish peroxidase (“HRP”)-conjugated streptavidin.

[1] = tested on: phospholipids (phosphatidylinositols vs phosphatidylcholine); assay: Proteome chip lipid-binding screen, overall analysis of six liposomes (PI/PC specificity); conditions: phospholipid liposome probes
From the text: FIGS. 4A-4D. Analysis of the phosphatidylinositol-binding proteins. To determine the phosphatidylinositol (“PI”)-binding specificity of 150 positive proteins, their binding signals were normalized against the corresponding binding signals of phosphatidylcholine (“PC”). Based on the ratios (“PI/PC”), the proteins were grouped into four categories: (A) 30 strong and specific, (B) 43 strong and nonspecific, (C) 19 weak and specific, and (D) 58 weak and nonspecific phosphatidylinositol-binding proteins. The intensity represents the PI/PC signal ratio as shown by the scale in the figure. The column, labeled “10^n” to the right of the PI/PC binding ratios indicates the maximum binding signal intensity (open boxes) and its confidence interval (solid horizontal lines); the numbers indicate the log of the values. Boxes in the three columns to the right of the confidence interval column indicate membrane-associated proteins (“Membrane”), kinases (“Kinase”), and uncharacterized ORFs (“Unknown”), respectively.
To identify PI-binding proteins in yeast, liposomes were used as probes because the liposome provides the most relevant physiological condition to assay the interactors. Six types of liposomes were used. […] The biotinylated lipid serves as a label that can be detected by Cy3-streptavidin (21). […]

## RIM15: yeast protein kinase, regulator of glucose metabolism, GST-HisX6 fusion
Six different liposomes; HRP-conjugated streptavidin
  liposome binding in reverse membrane assay: bound strongest to PI(3)P and PI(4)P and PI(3,4)P2
Six different liposomes; membrane assay, signal vs amount of protein
  affinity of PI(4)P relative to control PC: at least three-fold higher
[1]
  identified as lipid-binding interactor: identified
